Earlier results on 1 compound are cited in patent US20120093882A1 (priority 2009, published 2012).

The conditions of data set [1]: dissolved in ultra-pure water, natural midsummer sunlight, maximum of 145 h.
For data set [2] the following is noted: after oral administration.

In the case of `O=C(O)Cc1ccccc1Nc1c(Cl)cccc1Cl` [Diclofenac], in data set [1], the “degradation on exposure to sunlight” value is listed as “Fast degradation”. In addition, in data set [2], the absorption entry was “almost completely absorbed” and the hepatic first-pass metabolism is on record as 50%.
